Experimental data reported in paper PMC10717410, “TMC4 is a novel chloride channel involved in high-concentration salt taste sensation” (The Journal of Physiological Sciences : JPS, 2021).
Structures can show the parent of a compound that is named as a salt.

Assays:
Format in all cases: cell-based
mouse TMC4 (mTMC4) [1] = biological target: T1, mouse TMC4 (mTMC4) (Mus musculus, UniProt Q7TQ65); test: whole-cell patch clamp, bath chloride fully replaced by gluconate; conditions: permeating anion; NMDG-Cl pipette; pH 7.4 bath, about 25 °C
T1 construct: coding region from circumvallate papillae cDNA in pIRES2-AcGFP1 with IRES and GFP removed; transiently expressed in HEK293T with separate EGFP plasmid
T1 sequence (Q7TQ65 1-694): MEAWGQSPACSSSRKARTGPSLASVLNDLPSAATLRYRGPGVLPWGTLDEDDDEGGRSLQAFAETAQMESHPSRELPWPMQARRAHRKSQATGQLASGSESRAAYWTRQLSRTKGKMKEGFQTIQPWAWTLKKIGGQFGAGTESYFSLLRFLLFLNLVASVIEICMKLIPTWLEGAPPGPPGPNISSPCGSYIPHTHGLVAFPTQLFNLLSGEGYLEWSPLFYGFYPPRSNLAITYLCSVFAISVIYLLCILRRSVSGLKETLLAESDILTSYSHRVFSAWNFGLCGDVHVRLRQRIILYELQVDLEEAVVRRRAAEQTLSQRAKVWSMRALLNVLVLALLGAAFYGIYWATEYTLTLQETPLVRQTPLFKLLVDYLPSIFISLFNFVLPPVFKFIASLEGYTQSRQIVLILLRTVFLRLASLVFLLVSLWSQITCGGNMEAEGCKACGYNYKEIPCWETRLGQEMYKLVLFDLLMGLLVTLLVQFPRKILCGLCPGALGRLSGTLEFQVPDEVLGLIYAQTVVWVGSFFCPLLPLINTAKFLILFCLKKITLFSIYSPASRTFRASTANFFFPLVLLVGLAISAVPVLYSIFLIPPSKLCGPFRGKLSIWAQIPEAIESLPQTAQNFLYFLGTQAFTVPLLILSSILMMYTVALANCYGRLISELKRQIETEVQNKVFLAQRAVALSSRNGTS

mouse TMC4 (mTMC4) [2] = biological target: T1, mouse TMC4 (mTMC4); test: whole-cell patch clamp, transfected HEK293T; conditions: pH 7.4 bath, pH 7.2 pipette, about 25 °C
human TMC4 (hTMC4) = biological target: T2, human TMC4 (hTMC4) (Homo sapiens, UniProt Q7Z404); test: whole-cell patch clamp, step pulses, transfected HEK293T; conditions: pH 7.4 bath, pH 7.2 pipette, about 25 °C; channel blocker
T2 construct: coding region of purchased cDNA (Dharmacon) in pIRES2-AcGFP1 with IRES and GFP removed; transiently expressed in HEK293T
T2 sequence (Q7Z404 1-712): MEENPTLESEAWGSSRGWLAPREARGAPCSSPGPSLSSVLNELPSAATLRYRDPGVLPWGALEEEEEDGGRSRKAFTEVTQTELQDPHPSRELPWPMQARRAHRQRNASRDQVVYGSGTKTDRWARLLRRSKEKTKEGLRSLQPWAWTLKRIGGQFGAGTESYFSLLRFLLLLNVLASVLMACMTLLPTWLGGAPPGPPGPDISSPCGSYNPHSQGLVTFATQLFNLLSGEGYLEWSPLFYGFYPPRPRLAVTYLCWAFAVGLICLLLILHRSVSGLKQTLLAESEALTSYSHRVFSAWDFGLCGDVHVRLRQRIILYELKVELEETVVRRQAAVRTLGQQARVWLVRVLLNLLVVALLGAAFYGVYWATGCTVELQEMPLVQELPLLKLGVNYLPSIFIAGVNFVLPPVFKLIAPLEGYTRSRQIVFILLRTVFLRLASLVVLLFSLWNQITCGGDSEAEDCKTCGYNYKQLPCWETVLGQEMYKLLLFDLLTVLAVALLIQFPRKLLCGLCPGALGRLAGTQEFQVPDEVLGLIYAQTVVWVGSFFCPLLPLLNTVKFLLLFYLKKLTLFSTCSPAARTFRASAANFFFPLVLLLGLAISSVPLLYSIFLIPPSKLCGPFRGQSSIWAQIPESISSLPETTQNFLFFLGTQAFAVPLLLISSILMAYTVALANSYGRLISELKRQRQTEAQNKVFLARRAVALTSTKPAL

mouse TMC4 (mTMC4) [3] = biological target: T1, mouse TMC4 (mTMC4); test: as above; conditions: NMDG-Cl pipette, pH 7.4 bath, pH 7.2 pipette, about 25 °C, channel blocker

O=C(O)[C@H](O)[C@@H](O)[C@H](O)[C@H](O)CO [gluconate] was tested, and the “whole-cell patch clamp, bath chloride fully replaced by gluconate” value (mouse TMC4 (mTMC4) [1]) was “outward currents did not disappear even when the bath solution was completely substituted with Na-gluconate”.

With CC(C)(C)C1CCc2c(sc(NC(=O)c3ccco3)c2C(=O)O)C1 (centres unmarked) [CaCC(inh)-A01] the “Iblocker/Icontrol at + 60 mV” value (mouse TMC4 (mTMC4) [2]) was “mTMC4-mediated currents were inhibited by CaCC(inh)-A01”.

For O=C(O)c1cc([N+](=O)[O-])ccc1NCCCc1ccccc1 [NPPB, 5-nitro-2-(3-phenylpropylamino) benzoic acid], the current reduction (human TMC4 (hTMC4)) was “hTMC4) also functions as a Cl^− channel with a similar voltage dependency and is inhibited by NPPB” and the “Iblocker/Icontrol at + 60 mV” value (mouse TMC4 (mTMC4) [3]) was “mTMC4-mediated currents were strongly inhibited by the NPPB”.

With CNCCC(Oc1ccc(C(F)(F)F)cc1)c1ccccc1 (centres unmarked) [Fluoxetine hydrochloride] the “Iblocker/Icontrol at + 60 mV” value (mouse TMC4 (mTMC4) [2]; 100 μM compound) was “Fluoxetine hydrochloride and tannic acid also inhibited mTMC4-mediated currents”.
